The text below walks through data of ChEMBL document CHEMBL4622953, “Synthesis and biological evaluation of thioadatanserin and its dialkylated products as partial 5-HTR1A agonists and 5-HTR2A antagonists for potential use in depression and anxiety disorders” (Bioorg Med Chem Lett, 2020).

Counter-ions that a name gives are not always drawn. A value given as a limit tells only on which side of the number the result lay.

Assay type in all cases: cell-based
Test [1] has as its target T1, 5-hydroxytryptamine receptor 2C (Homo sapiens, UniProt P28335).
T1 sequence (P28335 whole entry): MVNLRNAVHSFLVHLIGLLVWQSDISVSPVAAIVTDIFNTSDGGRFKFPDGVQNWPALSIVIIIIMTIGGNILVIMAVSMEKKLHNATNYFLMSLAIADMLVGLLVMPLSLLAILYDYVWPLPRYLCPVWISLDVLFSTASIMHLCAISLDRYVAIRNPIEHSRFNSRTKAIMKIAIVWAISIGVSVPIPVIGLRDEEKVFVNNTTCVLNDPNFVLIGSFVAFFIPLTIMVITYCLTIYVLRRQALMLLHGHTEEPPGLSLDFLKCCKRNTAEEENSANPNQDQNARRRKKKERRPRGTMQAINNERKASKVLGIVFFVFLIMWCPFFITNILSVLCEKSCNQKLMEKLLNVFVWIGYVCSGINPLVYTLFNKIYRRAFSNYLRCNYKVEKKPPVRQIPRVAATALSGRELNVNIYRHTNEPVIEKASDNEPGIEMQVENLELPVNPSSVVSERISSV
Briefly: Antagonist activity at recombinant human 5-HT2C expressed in human U2OS cells by pathhunter beta-arrestin assay.

For test [2], the target named is 5-hydroxytryptamine receptor 2A (Homo sapiens, UniProt P28223). Description: Antagonist activity at recombinant human 5-HT2A expressed in human U2OS cells by pathhunter beta-arrestin assay.
5-hydroxytryptamine receptor 2A, sequence (P28223 whole entry): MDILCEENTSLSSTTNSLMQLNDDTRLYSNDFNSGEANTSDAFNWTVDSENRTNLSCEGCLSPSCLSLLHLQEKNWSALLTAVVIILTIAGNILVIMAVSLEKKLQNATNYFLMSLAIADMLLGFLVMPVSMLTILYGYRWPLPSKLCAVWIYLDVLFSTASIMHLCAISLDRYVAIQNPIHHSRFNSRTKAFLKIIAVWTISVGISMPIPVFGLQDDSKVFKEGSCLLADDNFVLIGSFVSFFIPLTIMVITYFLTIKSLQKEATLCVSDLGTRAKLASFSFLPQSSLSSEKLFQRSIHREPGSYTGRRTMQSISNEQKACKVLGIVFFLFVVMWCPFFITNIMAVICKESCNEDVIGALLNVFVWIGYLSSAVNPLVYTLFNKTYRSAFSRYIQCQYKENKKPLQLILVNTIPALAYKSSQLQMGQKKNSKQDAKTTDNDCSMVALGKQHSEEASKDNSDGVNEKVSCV
The target in test [3] is T2, 5-hydroxytryptamine receptor 1A (Homo sapiens, UniProt P08908).
T2 sequence (P08908 whole entry): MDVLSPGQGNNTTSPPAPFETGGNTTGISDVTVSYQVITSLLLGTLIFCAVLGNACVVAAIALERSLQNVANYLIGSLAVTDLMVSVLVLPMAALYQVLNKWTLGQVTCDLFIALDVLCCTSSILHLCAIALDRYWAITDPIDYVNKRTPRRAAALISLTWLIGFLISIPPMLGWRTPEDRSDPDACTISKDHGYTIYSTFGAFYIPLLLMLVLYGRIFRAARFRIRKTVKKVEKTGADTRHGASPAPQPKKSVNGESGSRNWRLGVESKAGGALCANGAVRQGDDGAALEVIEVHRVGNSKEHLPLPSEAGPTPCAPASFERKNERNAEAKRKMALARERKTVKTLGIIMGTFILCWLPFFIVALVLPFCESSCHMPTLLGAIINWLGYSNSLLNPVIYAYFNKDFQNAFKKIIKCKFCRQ
Briefly: Partial agonist activity at recombinant human 5-HT1A expressed in CHO-K1 cells by pathhunter beta-arrestin assay.

A word on the IC50: it is the concentration that gives 50% inhibition. On to `S=C(NCCN1CCN(c2ncccn2)CC1)C12CC3CC(CC(C3)C1)C2`, for which the IC50 in test [1] is above 3330 nM; in test [2], 62.3 nM.
Regarding `c1ccc(CS/C(=N/CC[N+]2(Cc3ccccc3)CCN(c3ncccn3)CC2)C23CC4CC(CC(C4)C2)C3)cc1`, the 50% inhibitory concentration (IC50) in test [2] was above 10000 nM.
As a reminder, the EC50 is the midpoint of the concentration-response curve. For `CS/C(=N/CC[N+]1(C)CCN(c2ncccn2)CC1)C12CC3CC(CC(C3)C1)C2`, the EC50 in test [3] was above 10000 nM. In addition, the IC50 in test [2] is above 10000 nM.
For `O=C(NCCN1CCN(c2ncccn2)CC1)C12CC3CC(CC(C3)C1)C2` [ADATANSERIN HYDROCHLORIDE], the IC50 in test [1] worked out at 1260 nM; in test [2], 33.7 nM. The EC50 in test [3] is 2.1 nM.
On to `Cc1cc2c(cc1Cl)N(C(=O)Nc1ccc(Oc3cccnc3C)nc1)CC2` [SB-242084], for which the IC50 in test [1] was 0.33 nM.
